According to US6218396A, “Substituted pyridino arylpiperazines useful in the treatment of benign prostatic hyperplasia” (Orth-McNeil Pharmaceutical, Inc., priority 1999, dated 2001):

Experiments:
α1b-AR = target: T1, α1b-AR (Homo sapiens, UniProt P35368); assay: receptor binding assay, [125I]-HEAT, membranes of COS cells expressing α1b-AR; details: [125I]-HEAT 50 pM, human α1b-AR in COS cell membranes; unit 'nanomolar'
T1 construct: expressed in transfected cells; host or cells: COS cells (pcDNA3, transient DEAE-dextran transfection; membranes)
T1 sequence (P35368 1-520): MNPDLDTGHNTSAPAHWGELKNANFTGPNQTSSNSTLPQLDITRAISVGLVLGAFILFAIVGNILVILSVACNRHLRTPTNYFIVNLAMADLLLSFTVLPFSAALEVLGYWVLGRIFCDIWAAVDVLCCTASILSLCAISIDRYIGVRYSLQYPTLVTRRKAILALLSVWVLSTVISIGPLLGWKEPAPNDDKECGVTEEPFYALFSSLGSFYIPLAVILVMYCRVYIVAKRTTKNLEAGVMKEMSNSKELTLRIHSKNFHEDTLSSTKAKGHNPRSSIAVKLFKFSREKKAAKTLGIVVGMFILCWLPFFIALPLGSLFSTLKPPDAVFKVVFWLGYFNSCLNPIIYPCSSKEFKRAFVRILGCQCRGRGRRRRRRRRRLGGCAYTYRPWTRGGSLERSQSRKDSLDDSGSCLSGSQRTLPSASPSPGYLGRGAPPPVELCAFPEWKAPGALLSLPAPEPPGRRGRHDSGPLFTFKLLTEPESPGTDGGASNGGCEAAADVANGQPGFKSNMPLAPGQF
Text: (§1) The DNA sequences of the three cloned human α1-AR subtypes have been published. […] We used published DNA sequence information to design primers for use in RT-PCR amplification of each subtype to obtain cloned cDNAs. Human poly A+ RNA was obtained from commercially available sources and included hippocampus and prostate samples, sources which have been cited in the literature. For the primary screen a radio ligand binding assay was used which employed membrane preparations from cells expressing the individual cloned receptor cDNAs. Radiolabeled ligands with binding activity on all three subtypes (non-selective) are commercially available ([125I]-HEAT, [3H]-prazosin).
(§2) Each α1 receptor subtype was cloned from poly A+ RNA by the standard method of reverse transcription-polymerase chain reaction (RT-PCR). The following sources of polyA+ RNA were used for the cloning of the α1 receptor subtypes: α1a -AR, human hippocampus and prostate, α1b -AR, human hippocampus, α1d -AR, human hippocampus. The resulting cDNAs were cloned into the pcDNA3 mammalian expression vector (Invitrogen Corp., San Diego Calif.). Each DNA was sequenced for verification and to detect any possible mutations introduced during the amplification process. Any deviation in sequence from the published consensus for each receptor subtype was corrected by site-directed mutagenesis.
(§3) The three α1-AR subtypes (a, b, d) were transfected into COS cells using a standard DEAE-dextran procedure with a chloroquine shock. In this procedure, each tissue culture dish (100 mm) was inoculated with 3.5×10^6 cells and transfected with 10 μg of DNA. Approximately 72 hours post-transfection, the cells were harvested and COS membranes were prepared. Transfected COS cells from 25 plates (100 mm) were scraped and suspended in 15 mL of TE buffer (50 mM Tris-HCl, 5 mM EDTA, pH7.4). The suspension was disrupted with a homogenizer. It was then centrifuged at 1000×g for 10 minutes at […]. The supernatant was centrifuged at 34,500×g for 20 minutes at 4° C. The pellet was resuspended in 5 mL TNE buffer (50 mM Tris-HCl, 5 mM EDTA, 150 mM NaCl, pH7.4). The resulting membrane preparation was aliquoted and stored at -70° C. The protein concentration was determined following membrane solubilization with TritonX-100.
(§4) The ability of each compound to bind to each of the α1-AR subtypes was assessed in a receptor binding assay. [125I]-HEAT, a non-selective α1-AR ligand, was used as the radiolabeled ligand. Each well of a 96-well plate received: 140 μL TNE, 25 μL [125I]-HEAT diluted in TNE (50,000 cpm; final concentration 50 pM), 10 μL test compound diluted in DMSO (final concentration 1 pM-10 μM), […] COS cell membrane preparation expressing one of the three α1-AR subtypes (0.05-0.2 mg membrane protein). The plate was incubated for 1 hour at room temperature and the reaction mixtures were filtered through a Packard GF/C Unifilter filter plate. The filter plate was dried for 1 hour in a vacuum oven. Scintillation fluid ([…]) was added to each well, and the filter plate was counted in a Packard Topcount scintillation counter. Data was analyzed using GraphPad Prism software.

α1a-AR = target: T2, α1a-AR (Homo sapiens, UniProt P35348); assay: receptor binding assay, [125I]-HEAT, membranes of COS cells expressing α1a-AR; details: [125I]-HEAT 50 pM, human α1a-AR in COS cell membranes; unit 'nanomolar'
T2 construct: expressed in transfected cells; host or cells: COS cells (pcDNA3, transient DEAE-dextran transfection; membranes)
T2 sequence (P35348 1-466): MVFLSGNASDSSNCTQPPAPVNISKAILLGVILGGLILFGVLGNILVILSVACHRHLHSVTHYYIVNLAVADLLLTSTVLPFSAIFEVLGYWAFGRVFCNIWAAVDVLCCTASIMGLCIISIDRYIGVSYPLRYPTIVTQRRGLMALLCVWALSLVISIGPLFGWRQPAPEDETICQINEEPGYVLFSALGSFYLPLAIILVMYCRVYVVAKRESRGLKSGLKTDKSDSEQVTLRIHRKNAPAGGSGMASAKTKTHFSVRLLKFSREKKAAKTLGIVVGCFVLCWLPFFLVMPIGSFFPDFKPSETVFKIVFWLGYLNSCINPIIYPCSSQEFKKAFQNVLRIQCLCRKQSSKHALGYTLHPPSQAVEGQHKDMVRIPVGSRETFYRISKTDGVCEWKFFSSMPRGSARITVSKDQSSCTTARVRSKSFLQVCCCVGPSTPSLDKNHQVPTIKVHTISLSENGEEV
Text: as §1, §2, §3, §4

α1d-AR = target: T3, α1d-AR (Homo sapiens, UniProt P25100); assay: receptor binding assay, [125I]-HEAT, membranes of COS cells expressing α1d-AR; details: [125I]-HEAT 50 pM, human α1d-AR in COS cell membranes; unit 'nanomolar'
T3 construct: expressed in transfected cells; host or cells: COS cells (pcDNA3, transient DEAE-dextran transfection; membranes)
T3 sequence (P25100 1-572): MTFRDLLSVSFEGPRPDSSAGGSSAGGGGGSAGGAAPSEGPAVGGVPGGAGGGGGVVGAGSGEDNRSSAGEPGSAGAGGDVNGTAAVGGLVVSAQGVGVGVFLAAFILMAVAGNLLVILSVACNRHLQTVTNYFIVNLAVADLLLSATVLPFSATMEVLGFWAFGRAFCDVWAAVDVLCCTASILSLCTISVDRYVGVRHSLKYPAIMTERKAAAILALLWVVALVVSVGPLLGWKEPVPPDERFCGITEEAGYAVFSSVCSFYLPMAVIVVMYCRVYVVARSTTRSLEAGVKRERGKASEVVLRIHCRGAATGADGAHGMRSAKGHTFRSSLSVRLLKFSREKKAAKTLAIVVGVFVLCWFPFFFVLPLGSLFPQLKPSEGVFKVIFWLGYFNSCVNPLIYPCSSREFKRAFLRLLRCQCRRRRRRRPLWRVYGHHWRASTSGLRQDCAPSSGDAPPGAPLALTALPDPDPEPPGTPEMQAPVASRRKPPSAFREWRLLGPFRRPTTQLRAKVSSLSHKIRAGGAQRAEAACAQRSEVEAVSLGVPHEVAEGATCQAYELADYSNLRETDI
Text: as §1, §2, §3, §4

symptomatic BPH = details: human, in vivo; cited from earlier work
5α-reductase = details: cited from earlier work

| Structure (SMILES) | IC50 (α1b-AR) | IC50 (α1a-AR) | IC50 (α1d-AR) | effectiveness in treating symptomatic BPH (in words) (symptomatic BPH) | serum and tissue concentrations of dihydrotestosterone (in words) (symptomatic BPH) | time for effects to become evident (symptomatic BPH) | inhibition of 5α-reductase (in words) (5α-reductase) |
| --- | --- | --- | --- | --- | --- | --- | --- |
| CC(C)Oc1ccccc1N1CCN(CC(O)CNC(=O)c2cccnc2Oc2ccccc2)CC1 (stereo not shown) [Compound 3] | 909 nM | 1.5 nM | 211 nM | – | – | – | – |
| CC(C)Oc1ccccc1N1CCN(CCCNC(=O)c2cccnc2Oc2ccccc2)CC1 [Compound 5] | 151 nM | 0.64 nM | 40 nM | – | – | – | – |
| CC(C)Oc1ccccc1N1CCN(C[C@@H](O)CNC(=O)c2cccnc2Oc2ccccc2)CC1 [Compound 8] | 668 nM | 0.76 nM | 81 nM | – | – | – | – |
| COc1ccc(Oc2ncccc2C(=O)NCC(O)CN2CCN(c3ccccc3OC(C)C)CC2)cc1 (stereo not shown) [Compound 10] | 1910 nM | 2.4 nM | 131 nM | – | – | – | – |
| CC(C)Oc1ccccc1N1CCN(CC(O)CNC(=O)c2cccnc2Nc2cccc(C(F)(F)F)c2)CC1 (stereo not shown) [Compound 11] | 1020 nM | 25 nM | 79 nM | – | – | – | – |
| CC(C)Oc1ccccc1N1CCN(CC(O)CNC(=O)c2cccnc2Sc2ccc(Cl)cc2)CC1 (stereo not shown) [Compound 12] | 806 nM | 2.6 nM | 299 nM | – | – | – | – |
| COc1ncccc1C(=O)NCC(O)CN1CCN(c2ccccc2OC(C)C)CC1 (stereo not shown) [Compound 13] | > 2000 nM | 3.5 nM | 191 nM | – | – | – | – |
| COC(CNC(=O)c1cccnc1Oc1ccccc1)CN1CCN(c2ccccc2OC(C)C)CC1 (stereo not shown) [Compound 16] | 1360 nM | 2.4 nM | 21 nM | – | – | – | – |
| CC(C)Oc1ccccc1N1CCN(CC(=O)CNC(=O)c2cccnc2Oc2ccccc2)CC1 [Compound 17] | 887 nM | 63 nM | 546 nM | – | – | – | – |
| Cc1ccc(Oc2ncccc2C(=O)NC[C@H](O)CN2CCN(c3ccccc3OC(C)C)CC2)cc1 [Compound 18] | 290 nM | 0.51 nM | 50 nM | – | – | – | – |
| CC(C)Oc1ccccc1N1CCN(C[C@@H](O)CNC(=O)c2cccnc2Oc2ccc(Cl)cc2)CC1 [Compound 27] | 791 nM | 0.86 nM | 57 nM | – | – | – | – |
| Cc1ccc(Oc2ncccc2C(=O)NC[C@@H](O)CN2CCN(c3ccccc3OC(C)C)CC2)cc1 [Compound 28] | 361 nM | 25 nM | 969 nM | – | – | – | – |
| Cc1ccc(Oc2ncccc2C(=O)NCCCN2CCN(c3ccccc3OC(C)C)CC2)cc1 [Compound 29] | > 2000 nM | 0.27 nM | 43 nM | – | – | – | – |
| CC(C)Oc1ccccc1N1CCN(CC(O)CNC(=O)c2cccnc2Oc2ccc(Cl)c(Cl)c2)CC1 (stereo not shown) [Compound 30] | 2250 nM | 2 nM | 56 nM | – | – | – | – |
| CC(C)Oc1ccccc1N1CCN(CC(O)CNC(=O)c2cccnc2Nc2ccccc2)CC1 (stereo not shown) [Compound 31] | 736 nM | 25 nM | 25 nM | – | – | – | – |
| COc1ccccc1N1CCN(CC(O)CNC(=O)c2cccnc2Oc2ccccc2)CC1 (stereo not shown) [Compound 32] | 1570 nM | 30 nM | 147 nM | – | – | – | – |
| CC(C)Oc1ccccc1N1CCN(CC(O)CNC(=O)c2cccnc2Oc2ccc(C(C)(C)C)cc2)CC1 (stereo not shown) [Compound 33] | > 2000 nM | 3.3 nM | 78 nM | – | – | – | – |
| CCOc1ccccc1N1CCN(CC(O)CNC(=O)c2cccnc2Oc2ccccc2)CC1 (stereo not shown) [Compound 34] | 132 nM | 9.1 nM | 206 nM | – | – | – | – |
| CC(C)Oc1ccccc1N1CCN(C[C@H](O)CNC(=O)c2cccnc2Oc2ccccc2)CC1 [Compound 35] | 889 nM | 10.2 nM | 314 nM | – | – | – | – |
| CC(C)Oc1ccccc1N1CCN(CC(O)CNC(=O)c2cccnc2Oc2ccc(F)cc2)CC1 (stereo not shown) [Compound 36] | 1180 nM | 1.5 nM | 148 nM | – | – | – | – |
| CC(C)Oc1ccccc1N1CCN(CC(O)CNC(=O)c2cccnc2Oc2cccc(Cl)c2)CC1 (stereo not shown) [Compound 37] | 952 nM | 0.91 nM | 180 nM | – | – | – | – |
| CC(C)Oc1ccccc1N1CCN(CC(O)CNC(=O)c2cccnc2Oc2cccc(N(C)C)c2)CC1 (stereo not shown) [Compound 38] | 972 nM | 2 nM | 56 nM | – | – | – | – |
| Cc1ccccc1Oc1ncccc1C(=O)NCC(O)CN1CCN(c2ccccc2OC(C)C)CC1 (stereo not shown) [Compound 39] | 730 nM | 1.1 nM | 1.7 nM | – | – | – | – |
| COc1ccccc1Oc1ncccc1C(=O)NCC(O)CN1CCN(c2ccccc2OC(C)C)CC1 (stereo not shown) [Compound 40] | 580 nM | 1.7 nM | 2.2 nM | – | – | – | – |
| Cc1ccc(Oc2ncccc2C(=O)NCC(O)CN2CCN(c3ccccc3OC(C)C)CC2)cc1 (stereo not shown) [Compound 41] | 928 nM | 0.52 nM | 21 nM | – | – | – | – |
| CC(C)Oc1ccccc1N1CCN(CC(O)CNC(=O)c2cccnc2Oc2ccc(Cl)cc2)CC1 (stereo not shown) [Compound 42] | 838 nM | 1 nM | 74 nM | – | – | – | – |
| CC(C)Oc1ccccc1N1CCN(CC(O)CNC(=O)c2cccnc2Sc2ccccc2)CC1 (stereo not shown) [Compound 43] | 1220 nM | 2 nM | 70 nM | – | – | – | – |
| CC(C)(C)NC(=O)[C@H]1CC[C@H]2[C@@H]3CC[C@H]4NC(=O)C=C[C@]4(C)[C@H]3CC[C@]12C [finasteride] | – | – | – | only moderately effective | marked decrease | 6-12 months | potent 5α-reductase inhibitor |
